The values below come from patent publication US8822506B2, “Use of succinate dehydrogenase inhibitors for controlling powdery mildew primary infections” (Bayer Cropscience AG, priority 2009, dated 2014).

What all share (format): in vivo, Podosphera leucotricha
Assay [1] relates to Powdery mildew. Kind of assay: Apple orchard field trial, powdery mildew secondary infections on leaves (incidence), assessed 10 days after application 8. The conditions noted are these: for 10DAT8 [% infested leaves] / 10DAT8 [% efficacy] (Abbott): apples, 10 days after application 8; for 10DAT8 [% infested leaves]: 8 applications at 10-day interval, untreated 96; for 10DAT8 [% efficacy] (Abbott): 8 applications, infested leaves. As for the experimental part:
(§1) Fluopyram was tested in apples orchard in comparison with already know fungicides active against Powdery mildew such as triadimenol (Bayleton) and boscalid.
(§2) Fluopyram was applied at range of rates: 18.5 g-25 g-37.5-50 g a.s./ha/meter canopy height (g ha/m c.h.). Bayleton was applied at 25 g a.s./ha/m c.h. Boscalid (Cantus WG50) was applied at 125 g a.s./m c.h.
(§3) During the spray season, the compounds were applied at apple susceptible stages from BBCH09 (green leaf tips 5 mm above bud scales to BBCH73 Fruit size between 20 and 40 mm (as described in BBCH Monograph, 2. Edition, 2001, edited by Uwe Meier, Federal Biological Research Centre for Agriculture and Forestry) in order to protect leaves, buds and shoots against Powdery mildew. The compounds have been applied eight times with an interval of ten days during spray season.
(§4) The type of assessments of infections was: • % infested area on leaves (severity) and % infested leaves (incidence) were assessed 10 days after application 8 (10DAT8). • Count and % infested shoots (primary infection) were assessed 345 days after application 8 (345 DAT8). Results

The test system of assay [2] is Powdery mildew. Kind of assay: Apple orchard field trial, powdery mildew primary infection of shoots in the following year, assessed 345 days after application 8. The conditions noted are these: apples, 8 applications; for 345DAT8 [% infested shoots]: 345 days after application 8, no other application, untreated 45.2; for 345DAT8 [% efficacy] (Abbott): 345 days after application 8, infested shoots. The procedure: as §1, §2, §3, §4

The test system of assay [3] is Powdery mildew. Described as above. The conditions noted are these: proximate year (assessment 345DAT8), without any other application; dose rate relation, 18.5 to 50 g a.s./m c.h.

In the case of `O=C(Nc1ccccc1-c1ccc(Cl)cc1)c1cccnc1Cl` [Boscalid, 2-chloro-N-(4′-chlorobiphenyl-2-yl)nicotinamide], in the assay on Powdery mildew [1] (125 g a.s./ha/m c.h.), the “10DAT8 [% infested leaves]” value turned out to be 46% and the “10DAT8 [% efficacy] (Abbott)” value is 52.1%. Also, in the assay with Powdery mildew [2] (125 g a.s./ha/m c.h.), the “345DAT8 [% infested shoots]” value is 30.8% and the “345DAT8 [% efficacy] (Abbott)” value came to 31.7%.

For the compound `O=C(NCCc1ncc(C(F)(F)F)cc1Cl)c1ccccc1C(F)(F)F` [Fluopyram, N-{2-[3-chloro-5-(trifluoromethyl)-2-pyridinyl]ethyl}-2-(trifluoromethyl)benzamide], the “10DAT8 [% infested leaves]” value with Powdery mildew [1] (18.5 g a.s./ha/m c.h.) was found to be 8.7%; with Powdery mildew [1] (25 g a.s./ha/m c.h.) it was 10%; with Powdery mildew [1] (37.5 g a.s./ha/m c.h.) it was 2.7%; in the assay on Powdery mildew [1] (50 g a.s./ha/m c.h.), 0.7%. Moreover, the “10DAT8 [% efficacy] (Abbott)” value in the assay with Powdery mildew [1] (18.5 g a.s./ha/m c.h.) stood at 91%; in the assay on Powdery mildew [1] (25 g a.s./ha/m c.h.) it was 89.6%; in the assay on Powdery mildew [1] (37.5 g a.s./ha/m c.h.) it was 97.2%; in the assay with Powdery mildew [1] (50 g a.s./ha/m c.h.), 99.3%. Also, in the assay with Powdery mildew [1] (assessment 10DAT8, 18.5 g to 50 g a.s./m c.h., visible dose rate effect, superior to triadimenol and boscalid from the lowest rate), the “efficacy against powdery mildew on apples against secondary infections (in words)” value is “excellent efficacy”. Further, the “345DAT8 [% infested shoots]” value amounted to 17.7% with Powdery mildew [2] (18.5 g a.s./ha/m c.h.), 14% with Powdery mildew [2] (25 g a.s./ha/m c.h.), 13% in the assay on Powdery mildew [2] (37.5 g a.s./ha/m c.h.) and 9% in the assay on Powdery mildew [2] (50 g a.s./ha/m c.h.). In addition, the “345DAT8 [% efficacy] (Abbott)” value in the assay on Powdery mildew [2] (18.5 g a.s./ha/m c.h.) is 60.9%; in the assay with Powdery mildew [2] (25 g a.s./ha/m c.h.), 69%; in the assay on Powdery mildew [2] (37.5 g a.s./ha/m c.h.) it was 71.2%; with Powdery mildew [2] (50 g a.s./ha/m c.h.), 80.1%. Besides, the “level of infection measured by the % of primary infested shoots (in words)” value with Powdery mildew [3] is “high decrease of infestation”.

Turning to `CC(C)(C)C(O)C(Oc1ccc(Cl)cc1)n1cncn1` (centres unmarked) [Triadimenol], in the assay on Powdery mildew [1] (25 g a.s./ha/m c.h.), the “10DAT8 [% infested leaves]” value came to 32% and the “10DAT8 [% efficacy] (Abbott)” value turned out to be 66.7%. In addition, in the assay with Powdery mildew [2] (25 g a.s./ha/m c.h.), the “345DAT8 [% infested shoots]” value was determined as 27.5% and the “345DAT8 [% efficacy] (Abbott)” value is on record as 39.1%.
